Drawing on PubChem BioAssay (NCI), this text covers TGI for 15 compounds.

Holding throughout (assay): DTP human tumour cell line panel, 48 h
Test [1] concerns ACHN renal.
Test [2] relates to HL-60(TB) leukemia.
Test [3] has as its system HOP-62 NSCLC.
The subject of test [4] is HCC-2998 colon.
Test [5] concerns EKVX NSCLC.
The test system of test [6] is OVCAR-3 ovarian.
In test [7] the test system is BT-549 breast.
The subject of test [8] is SF-539 CNS.
Test [9] deals with SF-295 CNS.
For test [10], the system named is OVCAR-4 ovarian.

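In this assay, cells in 96-well plates receive the compound at five concentrations for 48 hours. Endpoints are linearly interpolated between the surrounding concentrations. TGI: concentration producing complete growth inhibition.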

A word on the TGI: it is the concentration at which net growth stops. Read a high TGI as lower sensitivity of the cells. In the case of `COc1ccccc1NS(=O)(=O)c1ccc2ncn(NS(=O)(=O)c3ccc(Cl)cc3)c(=O)c2c1`, the TGI in [1], in test [2], in [3], in test [4], in [5] and in [6] was above 100 µM in each case. Moreover, the TGI in test [7], in [8], in [9] and in test [10] was above 100 µM in each case.

In the case of `C=CCC(SC)C1=C(C)C(=O)c2ccccc21` (stereo not drawn), the TGI in [1], in [3], in [4], in test [5], in test [6] and in test [7] was above 10 µM throughout. In addition, the TGI in test [8] and in [9] was above 10 µM each time.

In the case of `CC(=O)OCC1OC(N2C(S)=C(C#N)C(c3ccco3)C(C(C)=O)=C2c2ccccc2)C(OC(C)=O)C(OC(C)=O)C1OC(C)=O` (stereo not drawn), the TGI is above 100 µM in test [2]; 45.1 µM in [3]; above 100 µM in test [4]; above 100 µM in [6]; above 100 µM in test [7]; above 100 µM in [8]. In addition, the results for the concentration for total growth inhibition (TGI) in test [9] and in test [10] were 94 µM and 44.8 µM, respectively.

With `NCCCC[C@H](N)C(=O)Nc1ccc(-c2nc3ccccc3s2)cc1Cl`, the TGI in test [1] is 29.3 µM; in test [3], 31.7 µM; in test [4] it was above 38.4 µM; in test [5], 19.6 µM; in [6] it was 19.2 µM; in test [7], above 42.2 µM. This compound also had a TGI in test [9] of 10.2 µM.

`CN1C(=O)N(C)C2(CCN(CCCCCCF)CC2)C1=O`: the TGI in [1], in test [2], in test [3], in test [4], in test [5] and in [6] was above 100 µM each time. Further, the TGI in test [7], in test [8] and in [9] was above 100 µM in each case.

With `COc1cc2c(c(OC)c1OC)-c1ccc(SC)cc1C(=O)CC2`, the TGI in test [1] is above 100 µM; in test [2] it was 10.8 µM; in [4], 39.6 µM; in test [5], above 100 µM; in test [6], above 100 µM; in test [7], above 100 µM. Further, the TGI in test [8] is below 0.01 µM; in [9], above 100 µM; in [10], above 100 µM.

For the compound `CC1CC[C@@]2(OC1)OC1C[C@H]3[C@@H]4CCC5CC(O)CC[C@]5(C)[C@H]4C/C(=N\N(C)C)[C@]3(C)C1[C@@H]2C` (stereo partly drawn), the TGI is above 100 µM in [1]; 70.5 µM in [2]; 54.7 µM in test [3]; 45.6 µM in test [4]; 38.6 µM in [6]; 83.5 µM in test [7]. Besides, the TGI in test [8] was 60.9 µM; in test [10] it was above 100 µM.

Regarding `CSC1=C(C(=O)Nc2ccccc2)C(N)=NC1=O`, the TGI in test [2], in test [4], in test [5], in test [7], in test [8] and in test [10] was above 100 µM throughout.

On to `Cc1sc2nc3n(c(=O)c2c1C)N=C(c1ccc([N+](=O)[O-])cc1)CS3`, for which the TGI in test [1], in [2], in [3], in test [4], in test [5] and in test [6] was above 100 µM in each case. The TGI in test [7], in test [8] and in [9] was above 100 µM in each case.

Turning to `CCCCNC(=S)Nc1nc(C(=O)NNC(=O)c2ccccc2)cs1`, the TGI in test [1] is 37.3 µM; in test [2], above 100 µM; in test [3] it was 42.9 µM; in [4] it was 27.5 µM; in test [5], above 100 µM; in test [6], 19.7 µM. The TGI in [7] was 41.4 µM; in test [9] it was 33.9 µM; in test [10], above 100 µM.

As to `CC(/C=N/NC1=NCCCN1)=N\NC1=NCCCN1`, the TGI in test [1], in test [3], in [4], in test [5], in [6] and in test [7] was above 100 µM each time. The TGI in [8], in [9] and in [10] was above 100 µM in each case.

As to `CC(C)c1cccc(C(C)C)c1OS(=O)(=O)NC(=O)OC(C(F)(F)F)C(F)(F)F`, the TGI in test [1] is above 100 µM; in [2], above 100 µM; in test [3], 91.3 µM; in [4], above 100 µM; in test [5] it was above 100 µM; in test [7], above 100 µM. Besides, the results for the TGI in test [8], in test [9] and in test [10] were above 100 µM, 65.3 µM and above 100 µM, respectively.

For `COC(=O)C(Cc1nc2ccccc2[nH]c1=O)C(=O)C(=O)Nc1cc(C(F)(F)F)ccc1Cl` (stereo not drawn), the TGI in [1] turned out to be 24.5 µM; in test [2] it was 54.2 µM; in test [3], 35.1 µM; in test [4], 26.4 µM; in test [5], 39 µM; in test [6], 25.4 µM. For the same compound, the TGI in test [7] is 44.5 µM; in test [9], 71.2 µM; in [10], 27.9 µM.

As to `COC(=O)[C@H](CCSC)NC(=O)c1ccc(CNC(=O)/C(C)=C/c2ccccc2)cc1`, the TGI in test [1] was above 100 µM; in test [3], 52.3 µM; in test [4], 83.6 µM; in test [5], above 100 µM; in test [6], above 100 µM; in [7] it was 60.9 µM. The values for the TGI in test [8], in test [9] and in test [10] were 61.2 µM, above 100 µM and above 100 µM, respectively.

Turning to `Brc1cccc[n+]1-c1ccc2cc(-[n+]3ccccc3Br)ccc2c1`, the TGI in test [1] was 37.2 µM; in test [2], above 100 µM; in [3] it was 75.6 µM; in test [4], above 100 µM; in test [5] it was above 100 µM; in test [6], 46.4 µM. The values for the TGI in [7], in test [8] and in test [9] were above 100 µM, 40.1 µM and above 100 µM, respectively.
